Assay results from ChEMBL document CHEMBL1147540, “Design, synthesis, and SAR of 2-dialkylamino-4-arylpyrimidines as potent and selective corticotropin-releasing factor(1) (CRF(1)) receptor antagonists” (Bioorg Med Chem Lett, 2004).

Tests used:
[1] = target: T1, Corticotropin-releasing factor receptor 1 (Homo sapiens, UniProt P34998); test: Binding affinity towards human Corticotropin releasing factor receptor 1 by the displacement of [125I]CRF from CHO cells; IA means Inactive; format: cell-based
T1 sequence (P34998 whole entry): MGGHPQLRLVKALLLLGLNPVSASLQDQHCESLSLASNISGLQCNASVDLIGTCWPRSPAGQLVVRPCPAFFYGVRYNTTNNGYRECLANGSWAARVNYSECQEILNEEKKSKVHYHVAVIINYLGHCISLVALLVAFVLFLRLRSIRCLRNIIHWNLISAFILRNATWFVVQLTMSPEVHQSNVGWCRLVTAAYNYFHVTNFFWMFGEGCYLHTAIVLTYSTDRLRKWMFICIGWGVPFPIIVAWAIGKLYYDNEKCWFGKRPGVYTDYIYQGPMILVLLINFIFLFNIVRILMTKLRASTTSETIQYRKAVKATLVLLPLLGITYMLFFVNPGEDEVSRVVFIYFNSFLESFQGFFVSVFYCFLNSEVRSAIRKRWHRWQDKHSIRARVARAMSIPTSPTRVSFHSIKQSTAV

[2] = target: T1, Corticotropin-releasing factor receptor 1; test: biochemical; format: cell-based, CHO
[3] = target: T1, Corticotropin-releasing factor receptor 1; test: Effective dose against human Corticotropin releasing factor receptor 1 stimulated ACTH release from primary rat anterior pituitary cell cultures; format: functional, cell-based, Pituitary gland cell
[4] = target: T2, Corticotropin-releasing factor receptor 2 (Homo sapiens, UniProt Q13324); test: Binding affinity towards human Corticotropin releasing factor receptor 2 by the displacement of [125I]CRF from CHO cells; IA means Inactive; format: cell-based
T2 sequence (Q13324 whole entry): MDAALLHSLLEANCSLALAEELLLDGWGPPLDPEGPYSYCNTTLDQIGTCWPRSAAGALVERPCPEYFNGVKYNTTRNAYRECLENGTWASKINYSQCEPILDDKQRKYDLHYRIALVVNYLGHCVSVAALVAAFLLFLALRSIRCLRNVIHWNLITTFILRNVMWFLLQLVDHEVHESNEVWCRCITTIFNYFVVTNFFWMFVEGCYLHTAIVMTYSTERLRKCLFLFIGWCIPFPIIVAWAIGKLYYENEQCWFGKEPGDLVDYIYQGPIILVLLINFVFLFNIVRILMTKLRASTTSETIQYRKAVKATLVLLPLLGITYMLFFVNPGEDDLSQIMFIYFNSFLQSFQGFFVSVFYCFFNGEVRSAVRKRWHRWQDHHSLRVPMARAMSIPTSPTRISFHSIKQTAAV

[5] = target: T1, Corticotropin-releasing factor receptor 1; test: Effective dose against CRF stimulated cAMP production in CHO cells expressing human Corticotropin releasing factor receptor 1; format: functional, cell-based

Row | SMILES | Ki [2] [nM] | also measured
1 | CCCN(c1nccc(-c2c(OC)cc(OC)cc2OC)n1)c1cccc2ccccc12 |  | Ki [1]: Not Active
2 | CCCN(c1nccc(-c2ccc(OC)cc2OC)n1)C(C1CC1)C1CC1 | 460 | 
3 | C=CCN(c1nccc(-c2c(OC)cc(OC)cc2OC)n1)C(C1CC1)C1CC1 | 100 | 
4 | CCCN(c1nccc(-c2c(OC)cc(OC)cc2OC)n1)C1(c2ccoc2)CC1 | 700 | 
5 | CCCN(c1nc(C)c(C)c(-c2ccc(Br)cc2)n1)C(C1CC1)C1CC1 |  | Ki [1]: Not Active
6 | CCCN(c1nccc(-c2c(Cl)cc(OC)cc2OC)n1)C(C1CC1)C1CC1 | 11 | EC50 [3]: 1100 nM; Ki [4]: Not Active; EC50 [5]: 1600 nM
7 | CCCN(c1ncc(C)c(-c2c(OC)cc(OC)cc2OC)n1)C(C1CC1)C1CC1 | 15 | 
8 | CCCN(c1nccc(-c2c(OC)cc(OC)cc2OC)n1)C(C1CC1)C1CC1 | 15 | EC50 [3]: 970 nM; Ki [4]: Not Active; EC50 [5]: 990 nM
9 | COc1cc(OC)c(-c2ccnc(N)n2)c(OC)c1 |  | Ki [1]: Not Active
10 | CCCN(c1nccc(-c2c(OC)cc(OC)cc2OC)n1)[C@@H](c1ccccc1)C1CC1 | 240 | 
11 | CCCN(c1ncc(CC)c(-c2ccc(OC)cc2OC)n1)C(C1CC1)C1CC1 | 860 | 
12 | CCCN(c1ncc(C(=O)OC)c(-c2ccc(OC)cc2OC)n1)C(C1CC1)C1CC1 |  | Ki [1]: Not Active
13 | CCCN(c1ncc(C)c(-c2ccc(OC)cc2OC)n1)C(C1CC1)C1CC1 | 19 | 
14 | CCCN(c1nccc(-c2c(OC)cc(OC)cc2OC)n1)C1(c2cccs2)CC1 | 250 | 
15 | COc1cc(OC)c(-c2ccnc(NC(C3CC3)C3CC3)n2)c(OC)c1 |  | Ki [1]: Not Active
16 | CCCN(c1ncc(C)c(-c2ccc(Br)cc2)n1)C(C1CC1)C1CC1 | 49 | 
17 | CCCN(c1ncc(C)c(-c2ccc(Br)cc2C)n1)C(C1CC1)C1CC1 | 63 | 
18 | CCCN(c1nccc(-c2c(F)cc(OC)cc2OC)n1)C(C1CC1)C1CC1 | 63 | 
